The target of the test is T1, Vam7p PX domain (Saccharomyces cerevisiae, UniProt P32912).
T1 sequence (P32912 2-122): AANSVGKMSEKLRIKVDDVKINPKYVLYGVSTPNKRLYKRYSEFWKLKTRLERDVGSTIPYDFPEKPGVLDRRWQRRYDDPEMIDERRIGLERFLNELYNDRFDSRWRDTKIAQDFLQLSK
The test is described as follows: 1H, […] HSQC NMR titration. It is filed as binding.

Molecules are shown by their SMILES.

The term Kd denotes the concentration at which binding is half-saturated. Low readings indicate a tighter complex, high ones a looser complex. Regarding `CCCC(=O)OC[C@H](COP(=O)(O)O[C@@H]1[C@H](O)[C@H](OP(=O)(O)O)[C@@H](O)[C@H](O)[C@H]1O)OC(=O)CCC` [C4-PtdIns(3)P], the affinity, expressed as Kd, was 299 ± 26 µM.

Values taken from publication PMC1838525 (Protein science : a publication of the Protein Society, 2006).
